Measured values from patent publication US20080089884A1, “Compositions and methods for the modulation of detrusor activity” (priority 2006, published 2008).

How the values were obtained:
[1] = system: bladder function, men with BPH; settings: cited from earlier work
[2] = system: primary rat detrusor muscle cultures; assay type: cell-based; settings: 1 μg/ml, bladder smooth muscle cells, data not shown
Description: Tissue culture. Primary bladder muscle cultures were derived from newborn Sprague-Daley rats (Charles River; Wilmington, Mass.). The bladders were harvested, minced and added to 3 ml dissociation solution containing 0.5 mg/ml collagenase, 0.5 mg/ml elastase, 2 μg/ml DNAse (Worthington, Lakewood, N.J.) and 1 mg/ml soybean trypsin inhibitor (Gibco, Carlsbad, Calif.). The tissue was triturated at 15 minute intervals for 45 minutes using fire polished pasteur pipets. The cell solution was filtered through a 40 μm cell strainer and spun at 1000 rpm for 5 minutes. […] The cell number was determined and cells were plated at a density of 25,000 cells/cm2 in poly-L-lysine coated (P-6282, Sigma) 12-well plates (#3513, Corning, Corning, N.Y.) for biochemical and flow cytometry studies and on plastic 8-well chamber slides (#354108, BD Bioscience, San Jose, Calif.) for immunohistochemistry or TUNEL staining. […]
Apoptosis detection. […] Following treatment with rMIF, cells were analyzed using a kit (PF032, Calbiochem, San. Diego, Calif.) to separate apoptotic and necrotic cells on flow cytometry. […] Cells were analyzed using a Becton Dickenson FACS caliber flow cytometer with collection and analysis of data performed using Becton Dickinson CELLQuest software. TUNEL staining was detected using a kit (Roche) with DAB microscopy of cells grown 5-7 days in 8-well chamber slides. […]

[3] = system: MIF protein release from rat bladder muscle culture cells; assay: MIF ELISA of supernatants from rat bladder muscle cultures; assay type: cell-based; settings: TNF-α 50 ng/ml for 24 hours, 3 separate cultures
Description: Tissue culture. Primary bladder muscle cultures were derived from newborn Sprague-Daley rats (Charles River; Wilmington, Mass.). The bladders were harvested, minced and added to 3 ml dissociation solution containing 0.5 mg/ml collagenase, 0.5 mg/ml elastase, 2 μg/ml DNAse (Worthington, Lakewood, N.J.) and 1 mg/ml soybean trypsin inhibitor (Gibco, Carlsbad, Calif.). The tissue was triturated at 15 minute intervals for 45 minutes using fire polished pasteur pipets. The cell solution was filtered through a 40 μm cell strainer and spun at 1000 rpm for 5 minutes. The supernatant was aspirated and cells resuspended in DMEM-F/12 medium containing 1% FBS, 1% N-2 supplement and 1% Penicillin/Streptomycin (Gibco). The cell number was determined and cells were plated at a density of 25,000 cells/cm2 in poly-L-lysine coated (P-6282, Sigma) 12-well plates (#3513, Corning, Corning, N.Y.) for biochemical and flow cytometry studies and on plastic 8-well chamber slides (#354108, BD Bioscience, San Jose, Calif.) for immunohistochemistry or TUNEL staining. Cells were maintained at 37° C. and 5% CO2 in a humidified chamber. The presence of 1% FBS was required for the success of initial plating. […]
MIF ELISA. […] MIF concentrations were calculated by extrapolation from a quadratic standard curve using human rMIF (range: 0-12 ng/ml, sensitivity: 150 pg/ml).

[4] = system: incontinence due to detrusor over activity with DHIC; settings: cited from earlier work
urinary retention = settings: randomized placebo controlled trials; cited from earlier work
[5] = system: post-void residual in ambulatory older women; settings: estrogen users, 204 ambulatory women, mean age 79 years; cited from earlier work

For `CC(C)[N+](C)(CCOC(=O)C1c2ccccc2Oc2ccccc21)C(C)C` [propantheline], the acute urinary retention [1] is given as 5/6.

For `C[C@@H]1C[C@@H]([C@H](O)CC2CC(=O)NC(=O)C2)C(=O)[C@@H](C)C1` [cyclohexamide], the “apoptosis or necrosis induced by cyclohexamide alone” value [2] was “does not induce apoptosis or necrosis”.

With TNF-α the “increase in MIF protein levels detectable in the supernatant” value [3] was “approximately 30%”.

For `CCN(CC)CC#CCOC(=O)C(O)(c1ccccc1)C1CCCCC1` (stereo not drawn) [oxybutynin], the “decrease in daily incontinence frequency” value ([4]; intention-to-treat, 64 subjects on immediate-release oxybutynin started at 2.5 mg and titrated) is listed as 68%, the “evaluable subjects with no end-study leakage, impaired contractility” value ([4]; on oxybutynin, 9/19 subjects) is listed as 47% and the “evaluable subjects with no end-study leakage, normal contractility” value ([4]; on oxybutynin, 25/35 subjects) is listed as 71%. For the same compound, the “subjects with no incontinence episodes on the end-study bladder diary” value ([4]; subjects randomized to oxybutynin) was 34/64.

For `CC(C[N+](C)(C)C)OC(N)=O` (stereo not drawn) [Bethanechol chloride], the clinically-relevant outcomes (urinary retention) is given as “does not improve clinically-relevant outcomes”.

For estrogen, the “mean PVR” value [5] is given as 39.3 mL.
